According to PubChem BioAssay (NCI):
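Each compound was tested at five concentrations against cells in 96-well plates for 48 hours. At the TGI there is no net growth.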

Experiments:
Test in all cases: NCI anticancer screen, dose series, 48 h
[1] = tested on: M14 melanoma
[2] = tested on: SR leukemia
[3] = tested on: MALME-3M melanoma
[4] = tested on: UACC-257 melanoma
[5] = tested on: NCI-H522 lung
[6] = tested on: EKVX NSCLC
[7] = tested on: T-47D breast
[8] = tested on: BT-549 breast
[9] = tested on: CAKI-1 renal
[10] = tested on: CCRF-CEM leukemia
[11] = tested on: MOLT-4 leukemia
[12] = tested on: SK-MEL-5 melanoma
[13] = tested on: HL-60(TB) leukemia
[14] = tested on: OVCAR-3 ovarian
[15] = tested on: HT29 colon
[16] = tested on: MDA-MB-231 breast
[17] = tested on: SK-OV-3 ovarian
[18] = tested on: NCI-H23 lung
[19] = tested on: HOP-92 NSCLC
[20] = tested on: SF-539 CNS
[21] = tested on: IGROV1 ovarian
[22] = tested on: HCC-2998 colon
[23] = tested on: ACHN renal
[24] = tested on: U251 CNS
[25] = tested on: MCF7 breast
[26] = tested on: SW-620 colon
[27] = tested on: UO-31 renal
[28] = tested on: MDA-MB-435
[29] = tested on: HCT-15 colon
[30] = tested on: TK-10 renal
[31] = tested on: 786-0 renal
[32] = tested on: NCI/ADR-RES ovarian
[33] = tested on: PC-3 prostate
[34] = tested on: LOX IMVI melanoma
[35] = tested on: NCI-H226 lung
[36] = tested on: K-562 leukemia
[37] = tested on: UACC-62 melanoma
[38] = tested on: OVCAR-8 ovarian
[39] = tested on: SNB-75 CNS
[40] = tested on: SF-295 CNS
[41] = tested on: HS 578T breast
[42] = tested on: HCT-116 colon
[43] = tested on: OVCAR-4 ovarian
[44] = tested on: SK-MEL-28 melanoma
[45] = tested on: RPMI-8226 leukemia
[46] = tested on: SNB-19 CNS
[47] = tested on: COLO 205 colon
[48] = tested on: NCI-H460 lung
[49] = tested on: A549 NSCLC
[50] = tested on: OVCAR-5 ovarian
[51] = tested on: RXF 393 renal
[52] = tested on: KM12 colon
[53] = tested on: MDA-N
[54] = tested on: DU-145 prostate
[55] = tested on: A498 renal
[56] = tested on: SK-MEL-2 melanoma
[57] = tested on: SF-268 CNS
[58] = tested on: SN12C renal
[59] = tested on: HOP-62 NSCLC

Structure (SMILES): CC(NC1=NCCO1)c1ccsc1 (stereo unspecified)
- TGI [1]: 35.4 µM
- TGI [2]: 99.6 µM
- TGI [3]: 58 µM
- TGI [4]: 40.2 µM
- TGI [5]: 35 µM
- TGI [6]: > 100 µM
- TGI [7]: > 100 µM
- TGI [8]: > 100 µM
- TGI [9]: > 100 µM
- TGI [10]: 46.5 µM
- TGI [11]: 52.3 µM
- TGI [12]: 40.1 µM
- TGI [13]: 53.3 µM
- TGI [14]: 80.3 µM
- TGI [15]: 42.7 µM
- TGI [16]: 35.6 µM
- TGI [17]: > 100 µM
- TGI [18]: > 100 µM
- TGI [19]: 92.5 µM
- TGI [20]: 38.2 µM
- TGI [21]: > 100 µM
- TGI [22]: > 100 µM
- TGI [23]: > 100 µM
- TGI [24]: 36.8 µM
- TGI [25]: > 100 µM
- TGI [26]: 43.9 µM
- TGI [27]: > 100 µM
- TGI [28]: 43.1 µM
- TGI [29]: > 100 µM
- TGI [30]: > 100 µM
- TGI [31]: 42.9 µM
- TGI [32]: > 100 µM
- TGI [33]: 57.8 µM
- TGI [34]: 35 µM
- TGI [35]: > 100 µM
- TGI [36]: 68 µM
- TGI [37]: 34.3 µM
- TGI [38]: 77.7 µM
- TGI [39]: 47.3 µM
- TGI [40]: 39.4 µM
- TGI [41]: 33.9 µM
- TGI [42]: 34.1 µM
- TGI [43]: > 100 µM
- TGI [44]: 43 µM
- TGI [45]: 59.9 µM
- TGI [46]: > 100 µM
- TGI [47]: 35.3 µM
- TGI [48]: 33.2 µM
- TGI [49]: > 100 µM
- TGI [50]: > 100 µM
- TGI [51]: 85.8 µM
- TGI [52]: 36.1 µM
- TGI [53]: 65.8 µM
- TGI [54]: > 100 µM
- TGI [55]: > 100 µM
- TGI [56]: 50.2 µM

Structure (SMILES): c1ccc(CN2C3C4N(Cc5ccccc5)C2C2N(Cc5ccccc5)C(C(N2Cc2ccccc2)N4Cc2ccccc2)N3Cc2ccccc2)cc1
- TGI [1]: > 100 µM
- TGI [2]: > 100 µM
- TGI [4]: > 100 µM
- TGI [5]: > 100 µM
- TGI [6]: > 100 µM
- TGI [7]: > 100 µM
- TGI [8]: > 100 µM
- TGI [9]: > 100 µM
- TGI [10]: > 100 µM
- TGI [11]: > 100 µM
- TGI [12]: > 100 µM
- TGI [13]: > 100 µM
- TGI [14]: > 100 µM
- TGI [15]: > 100 µM
- TGI [16]: > 100 µM
- TGI [17]: > 100 µM
- TGI [18]: > 100 µM
- TGI [19]: > 100 µM
- TGI [20]: > 100 µM
- TGI [21]: > 100 µM
- TGI [22]: > 100 µM
- TGI [23]: > 100 µM
- TGI [57]: > 100 µM
- TGI [24]: > 100 µM
- TGI [25]: > 100 µM
- TGI [26]: > 100 µM
- TGI [28]: > 100 µM
- TGI [29]: > 100 µM
- TGI [30]: > 100 µM
- TGI [31]: > 100 µM
- TGI [32]: > 100 µM
- TGI [33]: > 100 µM
- TGI [34]: > 100 µM
- TGI [35]: > 100 µM
- TGI [36]: > 100 µM
- TGI [37]: > 100 µM
- TGI [38]: > 100 µM
- TGI [39]: > 100 µM
- TGI [40]: > 100 µM
- TGI [41]: > 100 µM
- TGI [42]: > 100 µM
- TGI [44]: > 100 µM
- TGI [45]: > 100 µM
- TGI [47]: > 100 µM
- TGI [49]: > 100 µM
- TGI [50]: > 100 µM
- TGI [51]: > 100 µM
- TGI [52]: > 100 µM
- TGI [58]: > 100 µM
- TGI [59]: > 100 µM
- TGI [53]: > 100 µM
- TGI [54]: > 100 µM
- TGI [55]: > 100 µM
- TGI [56]: > 100 µM

Structure (SMILES): CC1=C(C)C2(C#N)C(=O)N3C(=NC(c4ccco4)NC3c3ccco3)C2(C#N)C(c2ccco2)N1 (stereo unspecified)
- TGI [1]: > 100 µM
- TGI [2]: > 100 µM
- TGI [3]: > 100 µM
- TGI [4]: > 100 µM
- TGI [5]: > 100 µM
- TGI [6]: > 100 µM
- TGI [7]: > 100 µM
- TGI [8]: > 100 µM
- TGI [9]: > 100 µM
- TGI [10]: > 100 µM
- TGI [11]: > 100 µM
- TGI [12]: > 100 µM
- TGI [13]: > 100 µM
- TGI [15]: > 100 µM
- TGI [16]: > 100 µM
- TGI [17]: > 100 µM
- TGI [18]: > 100 µM
- TGI [19]: > 100 µM
- TGI [21]: > 100 µM
- TGI [22]: > 100 µM
- TGI [23]: > 100 µM
- TGI [57]: > 100 µM
- TGI [24]: > 100 µM
- TGI [25]: > 100 µM
- TGI [26]: > 100 µM
- TGI [27]: > 100 µM
- TGI [28]: > 100 µM
- TGI [29]: > 100 µM
- TGI [30]: > 100 µM
- TGI [31]: > 100 µM
- TGI [32]: > 100 µM
- TGI [33]: > 100 µM
- TGI [34]: > 100 µM
- TGI [35]: > 100 µM
- TGI [37]: > 100 µM
- TGI [38]: > 100 µM
- TGI [40]: > 100 µM
- TGI [41]: > 100 µM
- TGI [42]: > 100 µM
- TGI [43]: > 100 µM
- TGI [44]: > 100 µM
- TGI [45]: > 100 µM
- TGI [46]: > 100 µM
- TGI [47]: > 100 µM
- TGI [48]: > 100 µM
- TGI [49]: > 100 µM
- TGI [50]: > 100 µM
- TGI [51]: > 100 µM
- TGI [52]: > 100 µM
- TGI [58]: > 100 µM
- TGI [59]: > 100 µM
- TGI [53]: > 100 µM
- TGI [54]: > 100 µM
- TGI [55]: > 100 µM
- TGI [56]: > 100 µM

Structure (SMILES): COc1cc2c(SCCN(C)C)nc3ccccc3c2c2ccccc12
- TGI [1]: 3.46 µM
- TGI [2]: 4.42 µM
- TGI [3]: 3.99 µM
- TGI [4]: 3.38 µM
- TGI [5]: 2.79 µM
- TGI [6]: 4.08 µM
- TGI [7]: 7.66 µM
- TGI [8]: 21.7 µM
- TGI [9]: 3.87 µM
- TGI [10]: 4.56 µM
- TGI [11]: 8.14 µM
- TGI [12]: 3.08 µM
- TGI [14]: 7.79 µM
- TGI [15]: > 100 µM
- TGI [16]: 5.52 µM
- TGI [17]: 25.6 µM
- TGI [18]: 15 µM
- TGI [19]: 5.83 µM
- TGI [20]: 3.61 µM
- TGI [21]: 2.77 µM
- TGI [22]: 2.88 µM
- TGI [23]: 3.64 µM
- TGI [57]: 5.39 µM
- TGI [24]: 4.32 µM
- TGI [25]: 3.02 µM
- TGI [26]: 3.64 µM
- TGI [27]: 8.09 µM
- TGI [28]: 3.3 µM
- TGI [29]: 3.31 µM
- TGI [30]: 7.23 µM
- TGI [31]: 3.76 µM
- TGI [32]: 16.5 µM
- TGI [33]: 8.24 µM
- TGI [35]: 8.12 µM
- TGI [36]: > 100 µM
- TGI [37]: 3.12 µM
- TGI [39]: 8.32 µM
- TGI [40]: 3.45 µM
- TGI [41]: 8.61 µM
- TGI [42]: 2.83 µM
- TGI [43]: 9.22 µM
- TGI [44]: 3.17 µM
- TGI [45]: 4.23 µM
- TGI [46]: 8.14 µM
- TGI [47]: 3.75 µM
- TGI [48]: 3.33 µM
- TGI [49]: 3.08 µM
- TGI [50]: 4.03 µM
- TGI [51]: 4.29 µM
- TGI [52]: 2.69 µM
- TGI [58]: 6.41 µM
- TGI [59]: 2.81 µM
- TGI [53]: 4.87 µM
- TGI [54]: 15.8 µM
- TGI [55]: 35.8 µM
- TGI [56]: 4.03 µM
